These results are taken from patent US20250340543A1, “GPR84 ANTAGONISTS AND USES THEREOF” (Liminal BioSciences Limited, priority 2021, published 2025).

Some results are limits rather than exact numbers.

GPR84, sequence (Q9NQS5 whole entry): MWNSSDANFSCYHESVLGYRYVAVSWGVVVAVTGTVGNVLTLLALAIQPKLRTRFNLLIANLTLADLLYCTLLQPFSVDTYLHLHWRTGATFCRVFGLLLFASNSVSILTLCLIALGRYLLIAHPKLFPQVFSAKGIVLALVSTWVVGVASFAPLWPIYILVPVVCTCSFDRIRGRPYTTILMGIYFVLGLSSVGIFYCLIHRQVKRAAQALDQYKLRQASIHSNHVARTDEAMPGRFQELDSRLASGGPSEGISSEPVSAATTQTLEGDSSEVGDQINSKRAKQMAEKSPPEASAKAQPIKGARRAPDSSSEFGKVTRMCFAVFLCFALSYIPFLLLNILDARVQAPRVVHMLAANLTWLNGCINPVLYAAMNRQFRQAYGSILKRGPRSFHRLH

One experiment addresses GPR84 (Homo sapiens (Human), UniProt Q9NQS5). The experiment can be described thus: Gai biosensor BRET assay (GPR84-mediated activation of Gai, antagonist mode against agonist ZQ-16). The class given is cell-based. The note with it: HEK293 cells, 200 nmol/L GPR84 agonist ZQ-16, read-out: hGPR84 IC50. A digest of the protocol: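 Transiently transfected HEK293 cells expressing GPR84, Gαi2-Rluc8, GFP10-Gγ2 and Gβ1, in Tyrode's buffer pH 7.5. Compounds pre-incubated 5 min at 37° C, then 200 nmol/L ZQ-16 for 5 min at room temperature; BRET² with coelenterazine 400A, ligand-promoted net BRET after background and vehicle subtraction.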
(Bioluminescence resonance energy transfer reports proximity on the nanometre scale.)
For the molecule `O=C(CC1CCOCC1)N1CCc2cc(C#CC3CC3)ccc2C1` [Compound I-181], the IC50 was greater than 25 µM.
Still for that read-out and setting: in the case of `Cc1ccc(-c2ccc3c(c2)OCCn2c-3cc(OCC3COCCO3)nc2=O)cn1` (stereo not shown) [Compound I-211] it was 5 to 10 µM; in that of `O=c1nc(OCC2COCCO2)cc2n1CCOc1cc(C#CC3CC3)ccc1-2` (stereo not shown) [Compound I-214], less than 5 µM.
As for `Cc1cc(OC[C@@H]2CCCOC2)cc(=O)n1[C@H](C)c1ccc(C#CC2CC2)cc1` [Compound I-232], the IC50 is less than 5 µM.
Take `Cc1cc(OCc2ncccc2Cl)cc(=O)n1[C@H](C)c1ccc(C#CC2CC2)cc1` [Compound I-256]: the IC50 was less than 5 µM.
As to `Cc1cc(OCc2cnccn2)cc(=O)n1[C@H](C)c1ccc(C#CC2CC2)cc1` [Compound I-257], the IC50 is less than 5 µM.
Take `Cc1cc(OCc2ccncn2)cc(=O)n1[C@H](C)c1ccc(C#CC2CC2)cc1` [Compound I-258]: the IC50 was less than 5 µM.
Still for that read-out and setting: in the case of `Cc1cc(OCc2cccnc2)cc(=O)n1[C@H](C)c1ccc(C#CC2CC2)cc1` [Compound I-272] it was less than 5 µM; in that of `Cc1cc(OCc2ncccn2)cc(=O)n1C(C)c1ccc(C#CC2CC2)c(F)c1` (stereo not shown) [Compound I-273], less than 5 µM.

The experiment is the same for the next values; noted with them: compound tested at 1 μM (concentration code A*).
Molecule `O=C(NCC1CCCO1)N1CCc2cc(C#CC3CC3)ccc2C1` (stereo not shown) [Compound I-183] came in with an inhibition at 1 µM of less than 25%.
In turn, `O=C(NCC1CCCO1)N1Cc2ccc(C#CC3CC3)cc2C1` (stereo not shown) [Compound I-184] gave an inhibition at 1 µM of less than 25%.

The same experiment, now with this note: compound tested at 2 μM (concentration code A).
The molecule `Cc1c(C#CC2CC2)cccc1Cn1c(C)cc(OCc2ncccn2)cc1=O` [Compound I-241] had an inhibition at 2 µM of less than 25%.
For the molecule `Cc1cc(OCc2ncccn2)cc(=O)n1[C@H](C)c1cccc(C#CC2CC2)c1` [Compound I-252], the inhibition at 2 µM is less than 25%.
Same read-out and setting: the figure for `Cc1cc(OCc2ncccc2Cl)cc(=O)n1[C@H](C)c1ccc(C#CC2CC2)cc1` [Compound I-256] is greater than 75%.
The same measure, in the same setting: in the case of `Cc1cc(OCc2cnccn2)cc(=O)n1[C@H](C)c1ccc(C#CC2CC2)cc1` [Compound I-257] it was greater than 75%.
The molecule `Cc1cc(OCc2ccncn2)cc(=O)n1[C@H](C)c1ccc(C#CC2CC2)cc1` [Compound I-258] showed an inhibition at 2 µM greater than 75%.
For `Cc1cc(OCc2cccnc2)cc(=O)n1[C@H](C)c1ccc(C#CC2CC2)cc1` [Compound I-272], the inhibition at 2 µM is greater than 75%.

Staying with this experiment, now noted: compound tested at 5 μM (concentration code C).
Molecule `COc1ccc2c(-c3ccc(C#CC4CC4)cc3)nnn2c1` [Compound I-215] displayed an inhibition at 5 µM of less than 25%.

Staying with this experiment, now noted: compound tested at 10 μM (concentration code D).
In turn, `O=C(CC1CCCCO1)N1CCc2cc(C#CC3CC3)ccc2C1` (stereo not shown) [Compound I-187] had an inhibition at 10 µM of 25 to 50%.
On the same count and under the same terms, the figure for `COc1ccc2nc(-c3ccc(C#CC4CC4)cc3)cn2c1` [Compound I-216] is less than 25%; for `O=C(CC1CCOc2ccccc21)N1Cc2ccc(C#CC3CC3)cc2C1` (stereo not shown) [Compound I-217] it is less than 25%.
Same read-out and setting: the figure for `COc1ccc([C@@H](C)n2c(C)cc(OCC3COCCO3)cc2=O)cc1` (stereo partly shown) [Compound I-218] is 25 to 50%; for `CC#Cc1ccc([C@@H](C)n2c(C)cc(OCC3COCCO3)cc2=O)cc1` (stereo partly shown) [Compound I-219] it is 50 to 75%.
Still for that read-out and setting: the figure for `Cc1cc(OCC2COCCO2)cc(=O)n1C(C)c1ccc(C#CC2CC2)s1` (stereo not shown) [Compound I-220] is less than 25%.
`Cc1cc(OCC2COCCO2)cc(=O)n1C(C)c1cc(C#CC2CC2)cs1` (stereo not shown) [Compound I-221] had an inhibition at 10 µM of 25 to 50%.
Still for that read-out and setting: the figure for `Cc1cc(OCC2COCCO2)cc(=O)n1[C@H](C)c1ccc(N2CC(C)(CO)C2)cc1` (stereo partly shown) [Compound I-224] is less than 25%; for `Cc1cc(OCC2COCCO2)cc(=O)n1-c1ccc(C#CC2CC2)cc1` (stereo not shown) [Compound I-225] it is 25 to 50%.
Same read-out and setting: the figure for `Cc1cc(OCC2COCCO2)cc(=O)n1-c1cccc(C#CC2CC2)c1` (stereo not shown) [Compound I-226] is 50 to 75%; for `Cc1cc(OCC2OCC(C)(C)CO2)cc(=O)n1[C@H](C)c1ccc(C#CC2CC2)cc1` [Compound I-227] it is 50 to 75%.
As to `CC1(C)CN(c2cccc(Cn3ccc(OCC4COCCO4)cc3=O)c2)C1` (stereo not shown) [Compound I-228], the inhibition at 10 µM was less than 25%.
Still for that read-out and setting: in the case of `Cc1cc(OCC2Oc3ccccc3O2)cc(=O)n1[C@H](C)c1ccc(C#CC2CC2)cc1` [Compound I-230] it was less than 25%.
Same read-out and setting: the figure for `Cc1cc(OC[C@@H]2COCCO2)cc(=O)n1Cc1cc(C#CC2CC2)ccn1` [Compound I-231] is less than 25%; for `Cc1cc(OC[C@@H]2CCCOC2)cc(=O)n1[C@H](C)c1ccc(C#CC2CC2)cc1` [Compound I-232] it is greater than 75%.
Same read-out and setting: in the case of `Cc1cc(OC[C@@H]2COCCO2)cc(=O)n1Cc1cccc(C#CC2CC2)c1` [Compound I-233] it was 25 to 50%.
Molecule `Cc1cc(OCC2COCCO2)cc(=O)n1CCc1ccc(C#CC2CC2)cc1` (stereo not shown) [Compound I-234] gave an inhibition at 10 µM of 50 to 75%.
`Cc1cc(OCc2ncccn2)cc(=O)n1[C@H](C)c1ccc(N2CC(C)(C)C2)cc1` [Compound I-235] showed an inhibition at 10 µM of less than 25%.
On the same count and under the same terms, the figure for `Cc1cc(OCc2ncccn2)cc(=O)n1[C@@H](C)c1ccc(C#CC2CC2)cc1` [Compound I-236] is less than 25%; for `Cc1cc(OCc2ncccn2)cc(=O)n1Cc1ccc(C#CC2CC2)cc1` [Compound I-237] it is 50 to 75%.
On the same count and under the same terms, in the case of `Cc1cc(OCc2ncccn2)cc(=O)n1CCc1ccc(C#CC2CC2)cc1` [Compound I-238] it was greater than 75%.
On the same count and under the same terms, the figure for `Cc1cc(C#CC2CC2)ccc1C(C)n1ccc(OC[C@@H]2COCCO2)cc1=O` (stereo partly shown) [Compound I-239] is less than 25%; for `CC(c1ccc(C#CC2CC2)cn1)n1ccc(OC[C@@H]2COCCO2)cc1=O` (stereo partly shown) [Compound I-240] it is 25 to 50%.
The molecule `Cc1cc(OCc2ncccn2)cc(=O)n1Cc1ccc(N2CC(C)(C)C2)cc1` [Compound I-242] had an inhibition at 10 µM of less than 25%.
Still for that read-out and setting: in the case of `Cc1cc(OCc2ncccn2)cc(=O)n1[C@H](C)c1ccc(C#N)cc1` [Compound I-243] it was less than 25%; in that of `Cc1cc(OCc2ncccn2)cc(=O)n1-c1ccc(C#CC2CC2)cc1` [Compound I-244], less than 25%; in that of `Cc1cc(OCc2ncccn2)cc(=O)n1-c1cccc(C#CC2CC2)c1` [Compound I-245], less than 25%.
Same read-out and setting: in the case of `Cc1cc(OC[C@@H]2COCCO2)cc(=O)n1C(C)c1ccc(C#CC2CC2)cn1` (stereo partly shown) [Compound I-246] it was less than 25%; in that of `COc1cnc(COc2cc(C)n([C@H](C)c3ccc(C#CC4CC4)cc3)c(=O)c2)nc1` [Compound I-247], greater than 75%.
The molecule `CC1(C)CN(c2cccc(Cn3ccc(OCc4ncccn4)cc3=O)c2)C1` [Compound I-248] registered an inhibition at 10 µM of 25 to 50%.
The same measure, in the same setting: the figure for `CC(c1ccc(C#CC2CC2)cn1)n1ccc(OCc2ncccn2)cc1=O` (stereo not shown) [Compound I-249] is 25 to 50%; for `CC(c1cc(C#CC2CC2)ccn1)n1ccc(OCc2ncccn2)cc1=O` (stereo not shown) [Compound I-250] it is 25 to 50%; for `Cc1cc(C#CC2CC2)ccc1C(C)n1ccc(OCc2ncccn2)cc1=O` (stereo not shown) [Compound I-251] it is less than 25%.
Same read-out and setting: in the case of `Cc1cc(OCc2ncccn2)cc(=O)n1C(C)c1ccc(C#CC2CC2)cn1` (stereo not shown) [Compound I-253] it was 50 to 75%; in that of `Cc1cc(C#CC2CC2)cnc1C(C)n1ccc(OCc2ncccn2)cc1=O` (stereo not shown) [Compound I-254], less than 25%.
Regarding `CC(c1ccc(NC(=O)C2CC2)cc1)n1ccc(OCc2ncccn2)cc1=O` (stereo not shown) [Compound I-255], the inhibition at 10 µM is less than 25%.
Same read-out and setting: in the case of `Cc1cc(OCc2ncccn2)cc(=O)n1[C@H](C)c1ccc(C#CCN2CC(C)(C)C2)cc1` [Compound I-259] it was less than 25%.
The same measure, in the same setting: the figure for `Cc1cc(OCc2ncc(Cl)cn2)cc(=O)n1[C@H](C)c1ccc(C#CC2CC2)cc1` [Compound I-260] is greater than 75%; for `Cc1cc(OCc2ncccn2)cc(=O)n1C(C)c1cccc(C#CC2CC2)c1` (stereo not shown) [Compound I-261] it is less than 25%; for `Cc1cc(OCc2ncccn2)cc(=O)n1Cc1cccc(OCC(F)(F)F)c1` [Compound I-262] it is less than 25%.
Same read-out and setting: the figure for `Cc1cc(OCc2ncccn2)cc(=O)n1[C@H](C)c1ccc(C#CCNCc2ccccc2)cc1` [Compound I-263] is less than 25%.
In the case of `Cc1cc(OCc2ncccn2)cc(=O)n1[C@H](C)c1ccc(C#CCN(C)Cc2ccccc2)cc1` [Compound I-264], the inhibition at 10 µM was 25 to 50%.
On the same count and under the same terms, in the case of `Cc1cc(OCc2ncccn2)cc(=O)n1C(C)c1cc(C#CC2CC2)cs1` (stereo not shown) [Compound I-265] it was less than 25%.
`Cc1cc(OCc2ncccn2)cc(=O)n1Cc1cc(C#CC2CC2)ccn1` [Compound I-266] gave an inhibition at 10 µM of less than 25%.
Still for that read-out and setting: the figure for `Cc1cc(OCc2ncccn2)cc(=O)n1Cc1cccc(C#CC2CC2)c1` [Compound I-267] is less than 25%.
Still for that read-out and setting: the figure for `Cc1cc(OCc2ncccn2)cc(=O)n1Cc1cc(C#CC2CC2)ccc1F` [Compound I-268] is less than 25%; for `Cc1cc(OCc2ncccn2)cc(=O)n1[C@H](C)c1ccc(C#CCNC(=O)OC(C)C)cc1` [Compound I-269] it is less than 25%.
As to `Cc1cc(OCc2ncccn2)cc(=O)n1[C@H](C)c1ccc(C#CC2CC2)cc1F` [Compound I-270], the inhibition at 10 µM was less than 25%.
The same measure, in the same setting: the figure for `Cc1cc(OCc2ncccn2)cc(=O)n1Cc1cccc(N2CC(C)(C)C2)c1` [Compound I-271] is less than 25%; for `Cc1cc(OCc2ncccn2)cc(=O)n1C(C)c1ccc(C#CC2CC2)c(F)c1` (stereo not shown) [Compound I-273] it is greater than 75%.

The same experiment, now with this note: compound tested at 15 μM (concentration code F).
For the molecule `O=C(CC1CCOCC1)N1CCc2cc(C#CC3CC3)ccc2C1` [Compound I-181], the inhibition at 15 µM was in the range of 25 to 50%.
In turn, `COc1ccc(OCC2COCCO2)cc1Cc1ccc(C#CC2CC2)cc1` (stereo not shown) [Compound I-210] returned an inhibition at 15 µM of less than 25%.

Still in this experiment, the particulars now being: compound tested at 25 μM (concentration code G).
In turn, `O=C(CC1CCCCO1)N1Cc2ccc(C#CC3CC3)cc2C1` (stereo not shown) [Compound I-186] returned an inhibition at 25 µM of 25 to 50%.
Same read-out and setting: the figure for `Cc1ccc(-c2ccc3c(c2)CN(C(=O)CC2CCCCO2)C3)cn1` (stereo not shown) [Compound I-197] is less than 25%; for `Cc1ccc(-c2ccc3c(c2)CCN(C(=O)CC2CCCCO2)C3)cn1` (stereo not shown) [Compound I-203] it is 25 to 50%.
`O=c1nc(OCC2COCCO2)cc2n1CCOc1cc(Cl)ccc1-2` (stereo not shown) [Compound I-206] registered an inhibition at 25 µM of 25 to 50%.
On the same count and under the same terms, in the case of `Cc1ccc(-c2ccc3c(c2)OCCn2c-3cc(OCC3COCCO3)nc2=O)cn1` (stereo not shown) [Compound I-211] it was 25 to 50%; in that of `O=c1nc(OCC2COCCO2)cc2n1CCOc1cc(C#CC3CC3)ccc1-2` (stereo not shown) [Compound I-214], greater than 75%.

What is called IC50 is the concentration at which inhibition is half-maximal. In general, inhibition refers to the share of the control response that was lost under treatment. A low value points to little suppression.
